Tested on: EtBr:pCMV β-gal complex (DNA)
Test: Lipid:DNA interactions assay (ethidium bromide exclusion fluorescence)
Type: binding
Settings: titration of EtBr:DNA complex with lipid, TE buffer pH 8.0, FIG. 2
Text: Lipid:DNA Interactions Assay. Intercalation-induced fluorescence increase and competition with cationic lipids to bind to DNA has made Ethidium Bromide (EtBr) an excellent tool to study cationic lipid-DNA interactions. To assess the representative lipid:DNA interactions for the cationic lipids of the present invention, we have titrated the EtBr:pCMV β-gal complex with increasing amounts of cationic lipids 1-5.
The extent of Et.Br binding to the DNA was monitored by the changes in the fluorescence. EtBr fluorescence was monitored in Hitachi 4500 fluorimeter by setting the excitation wavelength at 518 nm and emission wavelength at 585 nm. To one ml of TE buffer (pH 8.0), 0.78 nmoles of DNA and 2.5 nmoles of EtBr were added. The change in fluorescence was monitored after adding small volumes of lipids 1-5 to the EtBr:DNA complex. Arbitrary fluorescence values were recorded after allowing sufficient time for equilibration. […] Percent fluorescence was calculated considering the fluorescence value in the absence of lipid as 100.

| SMILES | lipid:DNA interaction (ability to exclude ethidium bromide from DNA) |
| --- | --- |
| CCCCCCCCCCCC[N+]1(CCCCCCCCCCCC)CC(O)C(O)C1 (stereo not drawn) [lipid 1, N,N-di-n-dodecyl-3,4-dihydroxy pyrrolidinium chloride] | interact poorly with DNA |
| CCCCCCCCCCCCCC[N+]1(CCCCCCCCCCCCCC)CC(O)C(O)C1 (stereo not drawn) [lipid 2, N,N-di-n-tetradecyl-3,4-dihydroxy pyrrolidinium chloride] | interact with DNA equally well up to lipid:DNA ratio of 1.25 or so |
| CCCCCCCCCCCCCCCC[N+]1(CCCCCCCCCCCCCCCC)CC(O)C(O)C1 (stereo not drawn) [lipid 3, N,N-di-n-hexadecyl-3,4-dihydroxy pyrrolidinium chloride] | interact with DNA equally well up to lipid:DNA ratio of 1.25 or so |
| CCCCCCCCCCCCCCCCCC[N+]1(CCCCCCCCCCCCCCCCCC)CC(O)C(O)C1 (stereo not drawn) [lipid 4, N,N-di-n-octadecyl-3,4-dihydroxy pyrrolidinium chloride] | interact poorly with DNA |
| CCCCCCCC/C=C\CCCCCCCC[N+]1(CCCCCCCCCCCCCCCCCC)CC(O)C(O)C1 (stereo not drawn) [lipid 5, N-n-octadecyl-N-oleyl-3,4 dihydroxy pyrrolidinium chloride] | interact poorly with DNA |

Tested on: COS-1 cells
Test: Cell transfection, β-galactosidase reporter gene activity
Type: cell-based
Settings: pCMV β-gal plasmid 0.15 μg, lipid:DNA charge ratios 0.1:1 to 9:1, compared with DMRIE, FIG. 1
Protocol: Similar examples of plasmid include PGL-2 and PGL-3 of Promega and others.
Cell Transfection. COS-1 cells were seeded at a density of 15,000 cells/well in a 96-well plate eighteen hours before the transfection. 0.15 μg of plasmid DNA was complexed with varying amount of lipid (0.05-4.3 nmoles) in 13 μl of plain DMEM medium for 30 min. The charge ratios were varied from 0.1:1 to 9:1 (+/−) over this range of the lipid. The complex was diluted to 100 μl with plain DMEM and added to the wells. After 3 h of incubation, 100 μl of DMEM with 10% FCS was added to the cells. The medium was changed to 10% complete medium after 24 h and the reporter gene activity was estimated after 48 h. The cells were washed twice with PBS and lysed in 50 μl of lysis buffer (0.25 M Tris.HCl, pH 8.0 and 0.5% NP40). Care was taken to ensure complete lysis. The β-galactosidase activity per well was estimated by adding 50 μl of 2× substrate solution (1.33 mg/ml of ONPG, 0.2 M sodium phosphate, pH 7.15 and 2 mM magnesium chloride) to the lysate in a 96-well plate. Absorption at 405 nm was converted to β-galactosidase units by using calibration curve constructed with pure commercial β-galactosidase enzyme. The values of β-galactosidase units in replicate plates assayed on the same day varied by less than 30%. […]

| SMILES | in vitro transfection efficiency |
| --- | --- |
| CCCCCCCCCCCCCC[N+]1(CCCCCCCCCCCCCC)CC(O)C(O)C1 (stereo not drawn) [lipid 2, N,N-di-n-tetradecyl-3,4-dihydroxy pyrrolidinium chloride] | comparable to or better than that of DMRIE |

Reference: patent publication US7297712B2, “Cationic amphiphiles for intracellular delivery of therapeutic molecules and its composition, process and method of treatment” (Council of Scientific and Industrial Research, priority 2002, dated 2007)
